Drawing on PubChem BioAssay (NCI), this text covers TGI for 17 compounds.

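Values below derive from 48-hour exposures of cells grown in 96-well plates, with endpoints linearly interpolated between the two concentrations bracketing the appropriate inhibition level. TGI denotes the concentration required for complete inhibition of growth.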

Common to all, as to experiment: DTP human tumour cell line panel, 48 h
Experiment [1] deals with HOP-92 NSCLC.
For experiment [2], the system named is HT29 colon.
For experiment [3], the system named is OVCAR-8 ovarian.
Experiment [4] deals with SK-MEL-5 melanoma.
Experiment [5] deals with IGROV1 ovarian.
The test system of experiment [6] is MDA-MB-231 breast.
Experiment [7] deals with COLO 205 colon.
In experiment [8] the test system is RPMI-8226 leukemia.

As a reminder, the TGI is the concentration giving total growth inhibition. Read a low TGI as greater sensitivity of the cells. `NCCSCc1ccccc1Cl`: the concentration for total growth inhibition (TGI) in experiment [1], in experiment [2], in experiment [3], in experiment [4], in experiment [5] and in experiment [6] was above 100 µM in each case.

For `Cc1sc(C)c2c1C(=O)CC2N` (stereo unspecified), the TGI was 40.7 µM in experiment [1]; above 59.3 µM in experiment [2]; 44.9 µM in experiment [3]; above 100 µM in experiment [4]; 40.1 µM in experiment [7]; above 69 µM in experiment [5]. Further, the TGI in experiment [6] turned out to be 57 µM; in experiment [8], 49.2 µM.

Regarding `CCN(CC)c1ccc2cc(-c3nnc(-c4ccccc4O)o3)c(=O)oc2c1`, the TGI was 26.3 µM in experiment [2]; 11.9 µM in experiment [3]; 25.2 µM in experiment [4]; 33.6 µM in experiment [7]; 13.9 µM in experiment [5]; above 100 µM in experiment [8].

In the case of `Cc1nn2c(C(=O)N/N=C/c3ccc([N+](=O)[O-])cc3)c(C)nc2s1`, the TGI in experiment [1], in experiment [2], in experiment [3], in experiment [4], in experiment [7] and in experiment [5] was above 100 µM throughout. In experiment [6], this compound yielded a total growth inhibition concentration (TGI) of 49.4 µM.

As for `CCCCCCCCCCCCOc1ccc(/C=C/C2=[N+](CCCl)CCO2)cc1`, the total growth inhibition concentration (TGI) in experiment [1] was 86.5 µM; in experiment [2], above 100 µM; in experiment [3], above 100 µM; in experiment [4] it was above 100 µM; in experiment [7] it was above 100 µM; in experiment [5], 77.6 µM. The total growth inhibition concentration (TGI) in experiment [6] and in experiment [8] was above 100 µM in each case.

Take `COc1cc([C@@]23OC[C@@H]4[C@@H](OC[C@@H]42)c2cc4c(cc23)OCO4)cc(OC)c1OC`: the concentration for total growth inhibition (TGI) in experiment [2] is above 100 µM; in experiment [3], above 100 µM; in experiment [5], above 100 µM; in experiment [6] it was below 0.01 µM; in experiment [8], above 77.1 µM.

With `O=C(NC(Nc1ccc(F)cc1)(C(F)(F)F)C(F)(F)F)C(C(F)(F)F)C(F)(F)F`, the TGI in experiment [1] is above 100 µM; in experiment [2], above 100 µM; in experiment [3] it was above 100 µM; in experiment [4], above 100 µM; in experiment [7], above 100 µM; in experiment [5], above 51.5 µM. In addition, the TGI is above 100 µM in experiment [6] and 60 µM in experiment [8].

As to `CC1Cc2cc(O)c(O)cc2-c2cc(O)c(O)cc2CC1C` (stereo unspecified), the TGI was found to be 46.7 µM in experiment [1]; 63.9 µM in experiment [2]; 53.3 µM in experiment [3]; 17.4 µM in experiment [4]; 32.1 µM in experiment [7]; 47 µM in experiment [5]. Besides, the TGI in experiment [6] is 24.5 µM; in experiment [8], above 100 µM.

For `Oc1cccc2cc(Br)cnc12`, the TGI in experiment [1] is 74.2 µM; in experiment [2] it was above 73.1 µM; in experiment [3], above 100 µM; in experiment [4], 48.1 µM; in experiment [7], 97.5 µM; in experiment [5], 51.5 µM. The TGI is above 47.1 µM in experiment [6] and above 31.4 µM in experiment [8].

Turning to `COC(=O)C1=CN(C2CCCCC2)C2(c3ccccc3)c3ccccc3C(=O)OC(=O)C12` (stereo unspecified), the TGI in experiment [1], in experiment [2], in experiment [3], in experiment [4], in experiment [7] and in experiment [5] was above 100 µM each time. Moreover, the TGI in experiment [6] was above 100 µM.

On to `CN(C)c1ccc(-c2ccc(N(C)C)c3n[se]nc23)c2n[se]nc12`, for which the TGI in experiment [1], in experiment [2], in experiment [3], in experiment [4], in experiment [5] and in experiment [6] was above 100 µM throughout. Further, the concentration for total growth inhibition (TGI) in experiment [8] was above 100 µM.

Take `N#Cc1c(Cl)nc2ccccc2c1N=[N+]=[N-]`: the total growth inhibition concentration (TGI) in experiment [1] was found to be 3.32 µM; in experiment [2], 3.26 µM; in experiment [3] it was 7.7 µM; in experiment [4] it was 27.7 µM; in experiment [7], 3.56 µM; in experiment [5], 3.9 µM. The values for the concentration for total growth inhibition (TGI) in experiment [6] and in experiment [8] were 3.62 µM and 7.89 µM, respectively.

In the case of `CN1C=Cc2nccc3cc4c(c1c23)OCO4`, the total growth inhibition concentration (TGI) in experiment [1] was above 68.5 µM; in experiment [2] it was 27.5 µM; in experiment [3], above 100 µM; in experiment [4], 4.84 µM; in experiment [7] it was above 42.8 µM; in experiment [5], above 39.2 µM. The results for the TGI in experiment [6] and in experiment [8] were 29 µM and 30.7 µM, respectively.

As to `COC(=O)c1ccccc1/C=C1\Cc2c(C)cc(C)cc2C1=O`, the TGI in experiment [1], in experiment [2], in experiment [3], in experiment [4], in experiment [5] and in experiment [6] was above 100 µM each time. The same compound came in with a TGI in experiment [8] above 100 µM.

Turning to `COc1ccc(/C=C/C(=O)CC(=O)/C=C/c2ccc(OC)cc2)cc1`, the TGI in experiment [2] was above 100 µM; in experiment [3] it was 52.7 µM; in experiment [4], above 100 µM; in experiment [7] it was above 100 µM; in experiment [5] it was above 100 µM; in experiment [6] it was above 100 µM. The compound also showed a TGI in experiment [8] above 100 µM.

Turning to `NC(Cc1ccc(S(=O)(=O)O)cc1)C(=O)NC(Cc1ccc(S(=O)(=O)O)cc1)C(=O)NC(Cc1ccc(S(=O)(=O)O)cc1)C(=O)O` (stereo unspecified), the TGI in experiment [2], in experiment [3], in experiment [4], in experiment [7], in experiment [5] and in experiment [6] was above 100 µM in each case. In addition, the total growth inhibition concentration (TGI) in experiment [8] is above 100 µM.

As to `Cc1ccc(/C=C2\CCCC(CN(C)C)C2=O)cc1` (stereo unspecified), the TGI in experiment [1] is 3.75 µM; in experiment [2] it was 3.07 µM; in experiment [4], 12.5 µM; in experiment [7] it was 3.13 µM; in experiment [5] it was 4.15 µM; in experiment [6] it was 3.08 µM.
